Measurements reported in the supplement of paper PMC10981050.
“And” between values parts separate entries of the source, which are not always exact repeats. Equal entries are not always repeated. ± gives the standard deviation of the averaged measurements.

Tests used:
Experiment in all cases: cell viability relative to vehicle control; higher = less cytotoxic
MARIMO = conditions: SRSF2 genotype: SRSF2 WT
Method: (§1)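 Isogenic SRSF2 WT and CRISPR SRSF2 P95 mutant clones of MOLM14, OCI-AML2 and MARIMO were exposed to ROCK inhibitors at 7 doses (0.037 to 29.9 µM) for 48 h. Viability was read by CellTiter-Glo luminescence and normalised to the vehicle control on each plate (%).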

MOLM14 = tested on: MOLM14
Method: as §1

OCI-AML2 = conditions: SRSF2 genotype: SRSF2 WT
Method: as §1

[1] = 0.037 µM, SRSF2 genotype: SRSF2 WT
[2] = 0.129 µM, SRSF2 genotype: SRSF2 WT
[3] = 0.369 µM, SRSF2 genotype: SRSF2 WT
[4] = 0.997 µM, SRSF2 genotype: SRSF2 WT
[5] = 3.49 µM, SRSF2 genotype: SRSF2 WT
[6] = 9.97 µM, SRSF2 genotype: SRSF2 WT
[7] = 29.9 µM, SRSF2 genotype: SRSF2 WT

SMILES | cell viability (MARIMO; 0.037 µM) | cell viability (MARIMO; 0.129 µM) | cell viability (MARIMO; 0.369 µM) | cell viability (MARIMO; 0.997 µM) | cell viability (MARIMO; 3.49 µM) | cell viability (MARIMO; 9.97 µM) | cell viability (MARIMO; 29.9 µM) | cell viability (MOLM14; 0.037 µM, SRSF2 genotype: SRSF2 P95 mutant) | cell viability (MOLM14; [1]) | cell viability (MOLM14; 0.129 µM, SRSF2 genotype: SRSF2 P95 mutant) | cell viability (MOLM14; [2]) | cell viability (MOLM14; [3]) | cell viability (MOLM14; [4]) | cell viability (MOLM14; [5]) | cell viability (MOLM14; [6]) | cell viability (MOLM14; [7]) | cell viability (OCI-AML2; 0.037 µM) | cell viability (OCI-AML2; 0.129 µM) | cell viability (OCI-AML2; 0.369 µM) | cell viability (OCI-AML2; 0.997 µM) | cell viability (OCI-AML2; 3.49 µM) | cell viability (OCI-AML2; 9.97 µM) | cell viability (OCI-AML2; 29.9 µM)
CC1=C(C(=O)Nc2cc3cn[nH]c3cc2F)C(c2ccc(C(F)(F)F)cc2)CC(=O)N1 (stereo not given) | 103 ± 1.2% | 100.4 ± 0.44% | 96 ± 7.2% | 103 ± 5.5% | 98.9 ± 4.7% | 92.2 ± 11% | 95 ± 8.2% | 112% and 102% and 97.1% | 94 ± 18% | 107% and 105% and 103% | 96.4 ± 9.5% | 90.1 ± 19% | 82.5 ± 16% | 66.2 ± 16% | 60.3 ± 14% | 53 ± 13% | 107 ± 1.6% | 101 ± 5% | 96.9 ± 7.2% | 93.11 ± 0.21% | 68 ± 7.8% | 43.5 ± 9.3% | 39.4 ± 6%
C[C@@H](N)c1ccc(C(=O)Nc2ccnc3[nH]ccc23)cc1 | 99.5 ± 4.6% | 101 ± 3.1% | 96.2 ± 1.6% | 101 ± 1.3% | 93.99 ± 0.9% | 84.1 ± 7.2% | 35.1 ± 0.58% |  | 90.1 ± 21% |  | 94 ± 13% | 87.1 ± 18% | 81.4 ± 17% | 51.8 ± 14% | 29.4 ± 7.5% | 7.13 ± 1.6% | 104 ± 7.8% | 99.9 ± 1% | 93.2 ± 4.4% | 85 ± 1.9% | 52 ± 2% | 30.4 ± 4.6% | 7.89 ± 0.6%
CC1=C(C(=O)Nc2ccc3[nH]ncc3c2)C(c2ccc(F)cc2)NC(=O)N1 (stereo not given) | 102.6 ± 0.94% | 102 ± 2.7% | 100 ± 2.2% | 101 ± 4.8% | 96.1 ± 2.5% | 97.6 ± 13% | 99.8 ± 5.5% |  | 96.5 ± 12% |  | 96.7 ± 4.2% | 102 ± 14% | 95.8 ± 12% | 78.3 ± 14% | 66.3 ± 14% | 54.9 ± 10% | 110 ± 6.1% | 103 ± 7.4% | 102 ± 4.6% | 101 ± 6.8% | 78.3 ± 5.9% | 48.1 ± 6.7% | 39 ± 4.3%
